Source: US20250049680A1, “COMPOSITIONS AND METHODS FOR TREATING DENTIN CARIES” (Rutgers, The State University of New Jersey, priority 2023, published 2025)
“Also recorded” adds a separate entry of the source. Marks after values point to notes of the source that are not given here.

Assays:
[1] = Diametral tensile strength (DTS) of fortified dentin specimens after pH cycling; design: species or system human; conditions: for Diametral tensile strength: 5 min irrigation, 3-day pH cycling, mean ± SD; for DTS compared with the control group: in words; for DTS: pilot study, mean and standard deviation
Description: (§1) The column was further developed with 150 mL of one of five metal chloride solutions (0.1 mol/L AA2P salts of Mg, Zn, Mn, Sr, and Ba) to obtain a fraction containing new cationic L-ascorbic acid 2 phosphates with Mg, Zn, Mn, Sr, or Ba (FIG. 2). The prepared dentin specimens were randomly divided into six groups according to the solution used. The canal of each section was covered with an adhesive wax at the lower surface of the dentin specimen. Dentin specimens were then irrigated with one of five intervening solutions (AA2P salts of Mg (0.18 mM), Zn (5.3 μM), Mn (2.2×10^-8 M), Sr (1.8 μM), and Ba (1.9 μM)) for five minutes, with the saline solution used as the control group. The root canals were then flushed with 10 mL of distilled water immediately after each treatment to remove excess solution.
(§2) Fortified dentin specimens were subjected to a pH cycling procedure with repeated sequences of de/remineralization. Artificial caries were formed in the dentin specimens by a 1-hour immersion in 2.5 mL of demineralizing solution (1.5 mM CaCl2), 0.9 mM KH2PO4, 50 mM acetate buffer, pH 4.8). All lesions were then immersed in 2.5 mL of remineralizing solution (1.5 mM CaCl2, 0.9 mM KH2PO4, 20 mM HEPES [4-(2-hydroxyethyl)-1-piperazineethanesulfonic acid], pH 7.0) for 23 hours. During each solution change, the specimens were rinsed with deionized water for 10 seconds. The pH cycling process was performed at 37 degrees Celsius for three days.
The cylindrical specimens were positioned on a customized loading fixture to ensure that the 1.00 mm diameter loading pin aligned with the center axis of the dentin cylinder. Additionally, flat platens were used at both ends of the specimens to further ensure alignment with the testing surface. The specimens were then loaded horizontally into a universal testing machine, receiving a uniaxial load perpendicular to their long axes and parallel to the dentinal tubule orientation. A 1.00 mm diameter stainless steel plunger was used to apply downward pressure on the dentin surface at 1.0 mm/min crosshead speed. The maximal load applied to the plug at the time of dislodgement was recorded in Newtons, and the DTS was calculated using the formula
where F is the force in Newtons, D is the diameter of the cylinder, and h is the height in mm.

[2] = Solubility evaluation: weight loss of fortified dentin in butyric acid; design: species or system human; conditions: for Solubility (weight loss): 0.1 M butyric acid pH 4.4, 24 h, 37 C, mean ± SD; for weight loss: pilot study, mean and standard deviation
Description: as §1, with “solution. […]” for “solution.”
Fortified dentin specimens were completely immersed in 30 ml of 0.1 M butyric acid buffered with synthetic tissue fluid (pH 4.4) for 24 hours at 37 degrees C. and 100% relative humidity. After incubation, the specimens were removed from the acidic solutions, rinsed with distilled water to remove any residual acid, and dried. The weight of the dentin slices was measured by a digital microbalance before and after immersion into butyric acid, and the difference in weight provided information on dentin solubility.

[3] = Compressive strength of fortified dentin specimens after pH cycling; design: species or system human; conditions: for Compressive strength: 5 min irrigation, 3-day pH cycling, mean ± SD
Description: as §1, §2
The procedure for compressive strength testing was the same as for DTS testing except for the orientation of the specimens in the universal testing machine. The loads were applied uniaxially, parallel to the long axes of the specimens, and perpendicular to the dentinal tubule orientation until the specimens fractured. To calculate the compressive strength (MPa), the failure load (N) was divided by the area of the specimen in contact with the load

[4] = SEM-EDS color dot map, intensity of the metal in dentin; design: species or system human; conditions: for Unit of Intensity: EDS dot map at 1000x, 0 to 255 scale, mean ± SD; for color intensity: pilot study, mean and standard deviation
Description: as §1
Three specimens from each group were examined by SEM-EDS mode to observe the precipitation of metallic components on the dentin surface. All specimens were sectioned at a depth of 500 μm (exposure surface to fortifying solutions) using a diamond-coated disk under water cooling. The specimens' surfaces were then polished and sputter-coated with 10 nm gold and observed under an SEM. An EDS color dot map analysis was performed for each specimen at 1000× to evaluate the distribution of trace elements. The intensity of Mg, Zn, Mn, Sr, and Ba was measured using ImageJ software. The color maps were converted to binary, and their mean color intensity (0 to 255 scale) was recorded as a unit of intensity (UI).

[5] = Surface microhardness of fortified dentin specimens after pH cycling; design: species or system human; conditions: for microhardness, rank among all the groups: in words
Description: as §1, §2
A Micro Met 5100 durometer microhardness tester was used to measure the hardness of the fortified dentin specimens after exposure to a caries inducing environment. Each dentin specimen was further divided into two sections. Three separate indentations were made in each section at depths of 100 μm and 500 μm from the pulp-dentin interface using a 300-g load with a dwell time of 20 seconds for each measurement. The indentations were then evaluated under an optical microscope, and the average length of their two diagonal lengths was used to determine the hardness. The average microhardness value of the indentations' results was considered representative of each depth in each specimen.

[6] = Residual stress of treated dentin; conditions: 5 min treatment with AA2P salts
Description: After establishing that inorganic trace minerals (IoTM) were dysregulated in dentin, Applicant aimed to examine if extrinsic supplementation could enhance dentinal mechanical properties. Specimens were treated with L-ascorbic acid 2-phosphate (AA2P) salts of IoTM as a solute carrier for the elements for 5 minutes. The following findings were observed, as described below.
Cationic substitution may lead to changes in residual stress. Stress magnitude and distribution by can be measured using XRD (Mn X-ray source, 1 mm aperture) as well as by slitting crack compliance, a destructive mechanical strain release technique, using whole dentin disk samples. In the slitting method, a rectangular sample with a strain gauge applied to the back side will be wired to the electrical discharge machine to cut through a sample to measure strain relief. Finite element analysis can be used to create the stress profile through the depth of a sample. However, the technique's accuracy is limited at the surface. In contrast, XRD is best for surface measurements with very high accuracy. Data can be acquired using a sine-squared psi method to indicate residual stress, modulus, and Poisson ratio. […] Pit depths can be measured using a drop gauge. […] The residual stress in the surface and sub-surface of dentin apatite (as deep as […]) can be determined.

[7] = pH cycling model of artificial dentin caries; design: species or system human; conditions: in words
Description: as §2

[8] = 100 and 500 μm depths combined, N=20

Compound | Diametral tensile strength [1] | DTS compared with the control group [1] | DTS [1] [Mpa] | Solubility (weight loss) [2] | weight loss [2] [%] | Compressive strength [3] | Unit of Intensity ([4]; 500 μm depth) | color intensity [4] | Microhardness, Mean ([5]; 100 μM depth, N=10) [kgf/mm^2] | Microhardness, Mean ([5]; 500 μM depth, N=10) [kgf/mm^2] | Microhardness, Mean [5, 8] [kgf/mm^2] | kind of residual stress generated [6] | protection against artificial caries lesions [7] | compressive strength, rank among all the groups ([3]; in words) | microhardness, rank among all the groups ([5]; 100 μm depth) | microhardness, rank among all the groups ([5]; depths combined) | intensity / penetration, rank among all the groups ([4]; in words, 500 μm depth)
O=C1O[C@H]([C@@H](O)CO)C([O-])=C1OP(=O)([O-])[O-].O=C1O[C@H]([C@@H](O)CO)C([O-])=C1OP(=O)([O-])[O-].[Zn+2].[Zn+2].[Zn+2] [Zn] | 54.97 ± 10.12 ^b Mpa | significantly higher DTS than the control group | 53.98±9.94 | 12.88 ± 3.39 ^a % | 12.55±3.82 | 152.40 ± 15.07 ^b Mpa | 7.1 ± 1.04 ^b Ui | 7.35±1.34 | 40.30 | 56.30 | 48.30 | tensile residual stress | protected the dentin lesions |  |  |  | 
O=C1O[C@H]([C@@H](O)CO)C([O-])=C1OP(=O)([O-])[O-].O=C1O[C@H]([C@@H](O)CO)C([O-])=C1OP(=O)([O-])[O-].[Sr+2].[Sr+2].[Sr+2] [Sr] | 60.01 ± 2.70 ^b Mpa | significantly higher DTS than the control group | 59.99±1.91 | 18.53 ± 3.74 ^a % | 18.16±4.21 | 174.01 ± 11.09 ^c Mpa | 6.03 ± 0.67 ^b Ui | 6.2±0.85 | 47.60 | 59.10 | 53.35 | compressive residual stress |  | highest | highest | highest | 
O=C1O[C@H]([C@@H](O)CO)C([O-])=C1OP(=O)([O-])[O-].O=C1O[C@H]([C@@H](O)CO)C([O-])=C1OP(=O)([O-])[O-].[Mn+2].[Mn+2].[Mn+2] [Mn] | 56.07 ± 9.39 ^b Mpa | significantly higher DTS than the control group | 55.80±11.56 | 16.69 ± 3.97 ^a % | 16.48±4.55 | 148.03 ± 9.82 ^b Mpa | 6.57 ± 0.95 ^b Ui | 6.1±0.71 | 40.60 | 58.80 | 49.70 |  |  |  |  |  | 
O=C1O[C@H]([C@@H](O)CO)C([O-])=C1OP(=O)([O-])[O-].O=C1O[C@H]([C@@H](O)CO)C([O-])=C1OP(=O)([O-])[O-].[Ba+2].[Ba+2].[Ba+2] [Ba] | 61.56 ± 3.55 ^b Mpa | significantly higher DTS than the control group | 61.96±4.47 | 19.03 ± 2.99 ^a % | 18.96±3.44 | 157.96 ± 18.22 ^bc Mpa | 5.57 ± 0.95 ^b Ui | 5.55±1.34 | 45.00 | 60.00 | 52.50 |  | protected the dentin lesions |  |  |  | 
O=C1O[C@H]([C@@H](O)CO)C([O-])=C1OP(=O)([O-])[O-].O=C1O[C@H]([C@@H](O)CO)C([O-])=C1OP(=O)([O-])[O-].[Mg+2].[Mg+2].[Mg+2] [Mg] | 56.93 ± 11.93 ^b Mpa | significantly higher DTS than the control group | 57.60±15.21 | 12.73 ± 4.92 ^a % | 12.61±5.67 | 148.97 ± 6.89 ^b Mpa | 9.76 ± 1.52 ^a Ui | 9.9±2.12 | 38.10 | 57.20 | 47.65 |  |  |  |  |  | highest intensity; also recorded: highest penetration
